The test system of test [1] is LRRK2^WT. Briefly: Western blot LRRK2 degradation in WT MEFs. The class given is cell-based, mouse. The note with it: WT MEFs and LRRK2^G2019S MEFs. How it is done:
(§1) Western blot degradation assays for the LRRK2 protacs were performed with WT and PD-associated LRRK2 [G2019S] mouse embryonic fibroblasts (MEFs). The second-generation PROTACs were tested in parallel with the first generation PROTACs SD75, SD82, and SD100. The compounds were tested at 33 nM or […] concentrations for 4 hours or 24 hours, running two biological replicates per condition and achieving quantifications representative of both replicates. Analysis by quantitative immunoblotting was performed with readouts of the total LRRK2 (antibody recognizes epitope in C-terminus of protein), Rab10 pThr73 (physiological substrate) and LRRK2 pSer935 (biomarker phosphorylation site).
(§2) Primary MEFs were generated as described in a previous study (Wiggin et al., Mol. Cell Biol. 2002 April; 22(8):2871-81.). Briefly, the uterine horn was collected from adult female mice at day E12.5 and transferred to a 10 cm tissue culture dish containing cold PBS. Two forceps were used to tear the yolk sacs to isolate each embryo. Forceps were cleaned thoroughly with 70% ethanol between each embryo isolation. The embryos were culled, and a tissue piece was collected in a PCR tube for genotyping. The red tissue of the embryo, which grows to become the heart and liver, was removed. The remainder of the embryo was minced with a scalpel blade and incubated with 7.5 ml trypsin-EDTA solution for 10 minutes in a 37° C. tissue culture CO2 incubator. The dish was removed from the incubator and checked under a light microscope for single cells. 7.5 ml complete media was added to the trypsinised cells, and the cell suspension was transferred to a 15 ml Falcon tube, centrifuged at 1200 rpm for 5 minutes at room temperature. The trypsin was aspirated, the cell pellet was resuspended in 5 ml fresh complete media, and the cell suspension was plated in a 60 mm tissue culture dish and incubated in a 37° C., 5% CO2 tissue culture incubator. The MEFs at this stage were considered as passage 0 and were passaged and expanded for experimental use once the genotype was confirmed by allelic sequencing and immunoblotting. MEFs were cultured in Dulbecco's modified Eagle medium (DMEM) containing 10% (v/v) fetal bovine serum (FBS), 2 mM L-glutamine, 100 U/ml penicillin, and 100 μg/ml streptomycin supplemented with 1× non-essential amino acids and 1 mM sodium pyruvate.
(§3) Culturing and passaging of adherent cell lines were carried out using aseptic technique in CL1 or CL2 (for PBMC isolation) biological safety cabinets. All cells were incubated in a 37° C. incubator with 5% CO2. Cell lines were regularly tested for mycoplasma contamination. For western blot assay, the cells were seeded in 6-well plates. After treating with testing compounds at indicated concentrations and time period, the media was removed and the cells were washed with PBS and lysed in 100 μl ice-cold complete lysis buffer containing 50 mM Tris-HCl pH 7.4, 1 mM EGTA, 10 mM 2-glycerophosphate, 50 mM sodium fluoride, 5 mM sodium pyrophosphate, 270 mM sucrose, supplemented with 1 μg/ml microcystin-LR, 1 mM sodium orthovanadate, complete EDTA-free protease inhibitor cocktail (Roche) and 1% (v/v) Triton X-100. The cells were immediately placed on ice and were scraped and collected into 1.5 ml Eppendorf tubes. Cell lysates were incubated on ice for 10 minutes prior to centrifugation at 15,000 g at 4° C. for 15 minutes. The cell pellet was discarded, and supernatant was collected for analysis by quantitative immunoblotting. For long term storage, the supernatant was flash frozen and stored at −80° C. Protein concentrations of cell lysates were determined using the Bradford assay.
(§4) Cell lysates containing a quarter of a volume of 4× NuPAGE LDS sample buffer (NP0007) supplemented with 5% β-mercaptoethanol, were heated at 95° C. for 5 minutes. […]

For test [2], the system named is Rab10 pThr73. Description: Rab10 Thr73 dephosphorylation (immunoblot) in WT MEFs. It is filed as cell-based, mouse. The note with it: Mus musculus; for inhibition at 0.033 µM / inhibition at 1 µM: read-out: pRab10 inhibited in WT MEFs; for EC50: dose response, 4 h treatment, read-out: WT MEFs pRab10-dephosphrylation EC50. The gist of the method:
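Wild-type mouse embryonic fibroblasts in 6-well plates were treated with LRRK2 PROTACs, with two biological replicates per condition. Cells were washed in PBS and lysed on ice in buffer containing phosphatase and protease inhibitors plus 1% Triton X-100, then clarified at 15,000 g. Rab10 Thr73 phosphorylation was measured by quantitative immunoblotting of 15 to 20 μg protein on 4-12% Bis-Tris gels.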
On the technique in general: In western blotting, separated proteins are transferred to a membrane and probed.

For test [3], the system named is Rab10 pThr73. Briefly: Rab10 Thr73 dephosphorylation (immunoblot) in LRRK2^G2019S MEFs. The class given is cell-based. The note with it: Mus musculus, read-out: pRab10 inhibited in LRRK2^G2019S MEFs.
Test [4] has as its system Rab10 pThr73. The description is as above. It is filed as cell-based, mouse. The note with it: Mus musculus; for inhibition at 1 µM: read-out: pRab10 inhibited in LRRK2^G2019S MEFs; for EC50: dose response, 4 h treatment, read-out: G2019S MEFs-pRab10-dephosphorylation EC50.
In test [5] the target is T1, LRRK2^WT (Mus musculus, UniProt Q5S006).
T1 construct: endogenous in cells; host or cells: primary wild-type mouse embryonic fibroblasts (MEFs)
Description: Western blot LRRK2 degradation in WT MEFs. It is filed as cell-based. The note with it: for Dmax: read-out: Dmax on WT MEFs. As for the experimental part:
as §1, §2, §3, §4

A further test concerns the target T2, LRRK2^G2019S (Mus musculus, UniProt Q5S006, G2019S).
T2 construct: endogenous in cells; host or cells: LRRK2[G2019S] mouse embryonic fibroblasts (MEFs)
Briefly: Western blot LRRK2 degradation in LRRK2^G2019S MEFs. It is filed as cell-based. The note with it: for Dmax: read-out: Dmax on G2019S MEFs. As for the experimental part:
The second-generation PROTACs were tested in parallel with the first generation PROTACs SD75, SD82, and SD100. The compounds were tested at 33 nM or […] concentrations for 4 hours or 24 hours, running two biological replicates per condition and achieving quantifications representative of both replicates. Analysis by quantitative immunoblotting was performed with readouts of the total LRRK2 (antibody recognizes epitope in C-terminus of protein), Rab10 pThr73 (physiological substrate) and LRRK2 pSer935 (biomarker phosphorylation site).
as §2
Culturing and passaging of adherent cell lines were carried out using aseptic technique in CL1 or CL2 (for PBMC isolation) biological safety cabinets. All cells were incubated in a 37° C. incubator with 5% CO2. Cell lines were regularly tested for mycoplasma contamination. For western blot assay, the cells were seeded in 6-well plates. […] The cells were immediately placed on ice and were scraped and collected into 1.5 ml Eppendorf tubes. Cell lysates were incubated on ice for 10 minutes prior to centrifugation at 15,000 g at 4° C. for 15 minutes. The cell pellet was discarded, and supernatant was collected for analysis by quantitative immunoblotting. For long term storage, the supernatant was flash frozen and stored at −80° C. Protein concentrations of cell lysates were determined using the Bradford assay.
Cell lysates containing a quarter of a volume of 4× NuPAGE LDS sample buffer (NP0007) supplemented with 5% β-mercaptoethanol, were heated at 95° C. for 5 minutes. 15 to 20 μg of samples were loaded onto pre-cast 4-12% Bis-Tris midi 20W or 26W gels (Thermofisher Scientific®, Cat #WG1402BOX or WG1403BOX) and resolved at 130 V for 2 hours with NuPAGE MOPS SDS running buffer (Thermofisher Scientific® Cat #NP0001-02). Proteins were electrophoretically transferred onto a 0.45 μm nitrocellulose membrane (GE Healthcare, Amersham Protran® Supported 0.45 mm NC) at 90 V for 90 min on ice in transfer buffer (48 mM Tris base and 39 mM glycine supplemented with 20% methanol). The transferred membrane was blocked with 5% (w/v) skim milk powder dissolved in tris-buffered saline with tween (TBS-T) (50 mM Tris base, 150 mM sodium chloride (NaCl), 0.1% (v/v) Tween-20) at room temperature for 1 hour.

Like-named read-outs stand apart in the source and are kept apart here.

T1 sequence (Q5S006 whole entry): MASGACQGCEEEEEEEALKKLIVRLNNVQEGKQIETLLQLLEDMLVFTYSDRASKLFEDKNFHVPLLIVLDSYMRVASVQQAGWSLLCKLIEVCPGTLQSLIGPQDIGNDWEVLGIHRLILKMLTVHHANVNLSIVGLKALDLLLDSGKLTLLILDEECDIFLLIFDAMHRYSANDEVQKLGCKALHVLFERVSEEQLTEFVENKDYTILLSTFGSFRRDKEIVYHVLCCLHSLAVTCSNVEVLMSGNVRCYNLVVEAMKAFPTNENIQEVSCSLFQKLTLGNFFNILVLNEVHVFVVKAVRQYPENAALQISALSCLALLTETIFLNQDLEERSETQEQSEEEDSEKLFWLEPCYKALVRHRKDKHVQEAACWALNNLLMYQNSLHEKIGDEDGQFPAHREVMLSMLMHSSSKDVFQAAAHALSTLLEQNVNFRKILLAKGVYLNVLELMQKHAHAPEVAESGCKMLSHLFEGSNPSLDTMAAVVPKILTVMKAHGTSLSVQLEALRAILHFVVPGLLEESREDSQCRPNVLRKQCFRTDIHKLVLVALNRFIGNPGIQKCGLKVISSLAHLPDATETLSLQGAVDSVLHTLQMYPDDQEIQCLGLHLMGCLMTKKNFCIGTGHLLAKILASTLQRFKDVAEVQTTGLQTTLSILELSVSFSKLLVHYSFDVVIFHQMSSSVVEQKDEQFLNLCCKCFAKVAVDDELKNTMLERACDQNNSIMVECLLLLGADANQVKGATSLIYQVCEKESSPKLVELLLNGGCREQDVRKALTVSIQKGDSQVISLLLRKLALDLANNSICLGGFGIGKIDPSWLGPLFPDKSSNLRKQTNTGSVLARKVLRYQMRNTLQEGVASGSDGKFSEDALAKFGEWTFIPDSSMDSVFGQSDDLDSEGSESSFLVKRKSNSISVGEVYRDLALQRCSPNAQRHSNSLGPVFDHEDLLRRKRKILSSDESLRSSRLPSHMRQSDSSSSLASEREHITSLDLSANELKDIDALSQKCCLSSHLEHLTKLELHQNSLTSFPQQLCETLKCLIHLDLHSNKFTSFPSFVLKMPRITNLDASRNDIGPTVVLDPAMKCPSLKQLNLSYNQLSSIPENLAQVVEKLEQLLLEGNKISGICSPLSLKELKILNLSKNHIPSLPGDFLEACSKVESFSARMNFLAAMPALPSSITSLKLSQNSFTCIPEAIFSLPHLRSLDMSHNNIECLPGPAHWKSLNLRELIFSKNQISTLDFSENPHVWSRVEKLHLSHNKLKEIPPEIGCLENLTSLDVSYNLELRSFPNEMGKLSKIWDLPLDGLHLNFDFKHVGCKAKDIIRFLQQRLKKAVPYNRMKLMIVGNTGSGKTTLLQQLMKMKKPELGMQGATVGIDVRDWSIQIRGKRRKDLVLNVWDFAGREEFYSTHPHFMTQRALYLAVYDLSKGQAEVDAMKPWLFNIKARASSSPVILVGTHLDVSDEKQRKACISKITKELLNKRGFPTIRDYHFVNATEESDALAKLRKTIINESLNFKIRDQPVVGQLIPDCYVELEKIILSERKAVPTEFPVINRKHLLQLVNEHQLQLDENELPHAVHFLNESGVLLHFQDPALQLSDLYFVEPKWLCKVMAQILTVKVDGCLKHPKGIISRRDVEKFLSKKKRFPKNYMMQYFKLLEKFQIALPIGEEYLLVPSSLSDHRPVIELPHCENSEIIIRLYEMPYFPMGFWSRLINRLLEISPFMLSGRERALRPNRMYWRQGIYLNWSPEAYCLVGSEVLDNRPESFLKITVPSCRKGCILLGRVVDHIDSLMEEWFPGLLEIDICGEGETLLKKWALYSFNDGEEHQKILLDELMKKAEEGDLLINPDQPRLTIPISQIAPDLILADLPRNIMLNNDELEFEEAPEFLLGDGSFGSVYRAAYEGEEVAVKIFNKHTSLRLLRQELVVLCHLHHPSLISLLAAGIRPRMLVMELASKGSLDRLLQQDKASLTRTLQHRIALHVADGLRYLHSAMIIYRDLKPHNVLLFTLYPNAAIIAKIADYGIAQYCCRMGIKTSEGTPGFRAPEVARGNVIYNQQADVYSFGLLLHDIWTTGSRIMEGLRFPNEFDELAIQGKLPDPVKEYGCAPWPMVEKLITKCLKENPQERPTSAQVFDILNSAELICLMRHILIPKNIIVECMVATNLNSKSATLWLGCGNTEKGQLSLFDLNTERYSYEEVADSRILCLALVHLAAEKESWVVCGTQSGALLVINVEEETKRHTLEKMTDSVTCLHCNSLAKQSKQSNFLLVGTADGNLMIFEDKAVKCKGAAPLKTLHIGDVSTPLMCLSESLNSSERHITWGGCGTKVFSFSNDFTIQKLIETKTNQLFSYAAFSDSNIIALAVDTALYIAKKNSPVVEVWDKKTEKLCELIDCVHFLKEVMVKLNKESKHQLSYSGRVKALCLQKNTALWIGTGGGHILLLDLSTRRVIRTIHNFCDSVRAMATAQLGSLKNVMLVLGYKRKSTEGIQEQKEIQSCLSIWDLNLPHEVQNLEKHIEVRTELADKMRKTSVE
T2 sequence (Q5S006 whole entry G2019S): as the sequence (Q5S006 whole entry) above, with G2019S counted along it

As for `CNc1nc(Nc2ccc(C(=O)N3CCN(Cc4ccc(CSC(C)(C)[C@H](NC(=O)C5(F)CC5)C(=O)N5C[C@H](O)C[C@H]5C(=O)NCc5ccc(-c6scnc6C)cc5)cc4)CC3)cc2OC)ncc1Cl` [SD100, (2S,4R)-1-((R)-3-((4-((4-(4-((5-chloro-4-(methylamino)pyrimidin-2-yl)amino)-3-methoxybenzoyl)piperazin-1-yl)methyl)benzyl)thio)-2-(1-fluorocyclopropane-1-carboxamido)-3-methylbutanoyl)-4-hydroxy-N-(4-(4-methylthiazol-5-yl)benzyl)pyrrolidine-2-carboxamide], the “LRRK2 degradation (in words)” value with LRRK2^WT [1] is on record as “moderate LRRK2 degradation”. Moreover, the inhibition at 0.033 µM in the test with Rab10 pThr73 [2] (33 nM/4 h treatment) is 0 to 25%; in the test on Rab10 pThr73 [3] (33 nM/4 h treatment), 0 to 60%; in the test with Rab10 pThr73 [3] (33 nM/24 h treatment) it was 0 to 70%. Moreover, the inhibition at 1 µM in the test with Rab10 pThr73 [2] (1 μM/4 h treatment) lay within 18 to 90%; with Rab10 pThr73 [2] (1 μM/24 h treatment) it was 30 to 90%; in the test with Rab10 pThr73 [4] (1 μM/4 h treatment) it was 30 to 95%.
For `CNc1nc(Nc2ccc(C(=O)N3CCN(CCCSC(C)(C)[C@H](NC(=O)C4(F)CC4)C(=O)N4C[C@H](O)C[C@H]4C(=O)NCc4ccc(-c5scnc5C)cc4)CC3)cc2OC)ncc1Cl` [SD82, (2S,4R)-1-((R)-3-((3-(4-(4-((5-chloro-4-(methylamino)pyrimidin-2-yl)amino)-3-methoxybenzoyl)piperazin-1-yl)propyl)thio)-2-(1-fluorocyclopropane-1-carboxamido)-3-methylbutanoyl)-4-hydroxy-N-(4-(4-methylthiazol-5-yl)benzyl)pyrrolidine-2-carboxamide], in the test with LRRK2^WT [1], the “LRRK2 degradation (in words)” value is reported as “moderate LRRK2 degradation”. In addition, the results for the inhibition at 0.033 µM with Rab10 pThr73 [2] (33 nM/4 h treatment), in the test on Rab10 pThr73 [3] (33 nM/4 h treatment) and in the test with Rab10 pThr73 [3] (33 nM/24 h treatment) were 0 to 25%, 0 to 60% and 0 to 70%, respectively. For the same compound, the inhibition at 1 µM in the test on Rab10 pThr73 [2] (1 μM/4 h treatment) was in the range of 18 to 90%; in the test on Rab10 pThr73 [2] (1 μM/24 h treatment) it was 30 to 90%; in the test with Rab10 pThr73 [4] (1 μM/4 h treatment), 30 to 95%.
The Dmax is the greatest extent of degradation seen. A word on the EC50: it is the concentration that produces a half-maximal response. Turning to `CNc1nc(Nc2ccc(C(=O)N3CCN(C[C@H]4CC[C@@H](CSC(C)(C)[C@H](NC(=O)C5(F)CC5)C(=O)N5C[C@H](O)CC5C(=O)N[C@@H](C)c5ccc(-c6scnc6C)cc5)CC4)CC3)cc2OC)ncc1Cl` (stereo partly drawn) [XL02060, (2S,4R)-1-((R)-3-((((1s,4S)-4-((4-(4-((5-chloro-4-(methylamino)pyrimidin-2-yl)amino)-3-methoxybenzoyl)piperazin-1-yl)methyl)cyclohexyl)methyl)thio)-2-(1-fluorocyclopropane-1-carboxamido)-3-methylbutanoyl)-4-hydroxy-N—((S)-1-(4-(4-methylthiazol-5-yl)phenyl)ethyl)pyrrolidine-2-carboxamide], the Dmax was determined as 71% at LRRK2^WT [5] (dose response, 4 h treatment) and 78.5% on LRRK2^G2019S (dose response, 4 h treatment). Also, the inhibition at 0.033 µM in the test on Rab10 pThr73 [2] (33 nM/4 h treatment) was 0 to 70%; with Rab10 pThr73 [2] (33 nM/24 h treatment) it was 0 to 80%; in the test on Rab10 pThr73 [3] (33 nM/4 h treatment), 0 to 90%; in the test on Rab10 pThr73 [3] (33 nM/24 h treatment), 30 to 90%. The inhibition at 1 µM with Rab10 pThr73 [2] (1 μM/4 h treatment) was 80 to 100%; in the test on Rab10 pThr73 [2] (1 μM/24 h treatment), 80 to 100%; in the test with Rab10 pThr73 [4] (1 μM/4 h treatment), 10 to 100%; in the test on Rab10 pThr73 [4] (1 μM/24 h treatment), 80 to 100%. Besides, the half-maximal effective concentration (EC50) is 32 nM with Rab10 pThr73 [2] and 27 nM in the test with Rab10 pThr73 [4].
Usually DC50 stands for the concentration giving 50% degradation. High values mean a less potent degrader, low ones a more potent degrader. As for `CNc1nc(Nc2ccc(C(=O)N3CCN(C(=O)[C@H]4CC[C@H](CSC(C)(C)[C@H](NC(=O)C5(F)CC5)C(=O)N5C[C@H](O)CC5C(=O)NCc5ccc(-c6scnc6C)cc5)CC4)CC3)cc2OC)ncc1Cl` (stereo partly drawn) [XL02068, (2S,4R)-1-((R)-3-((((1R,4R)-4-(4-(4-((5-chloro-4-(methylamino)pyrimidin-2-yl)amino)-3-methoxybenzoyl)piperazine-1-carbonyl)cyclohexyl)methyl)thio)-2-(1-fluorocyclopropane-1-carboxamido)-3-methylbutanoyl)-4-hydroxy-N-(4-(4-methylthiazol-5-yl)benzyl)pyrrolidine-2-carboxamide], the half-maximal degradation concentration (DC50) at LRRK2^WT [5] (dose response, 4 h treatment) worked out at 93 nM; on LRRK2^G2019S (dose response, 4 h treatment), 103 nM. Besides, the Dmax worked out at 89% on LRRK2^WT [5] and 87% on LRRK2^G2019S. The inhibition at 0.033 µM in the test with Rab10 pThr73 [2] (33 nM/4 h treatment) is 0 to 70%; in the test on Rab10 pThr73 [2] (33 nM/24 h treatment), 0 to 80%; with Rab10 pThr73 [3] (33 nM/4 h treatment), 0 to 90%; in the test on Rab10 pThr73 [3] (33 nM/24 h treatment) it was 30 to 90%. The inhibition at 1 µM in the test on Rab10 pThr73 [2] (1 μM/4 h treatment) lay in the range of 80 to 100%; in the test with Rab10 pThr73 [2] (1 μM/24 h treatment), 80 to 100%; in the test with Rab10 pThr73 [4] (1 μM/4 h treatment) it was 10 to 100%; in the test on Rab10 pThr73 [4] (1 μM/24 h treatment) it was 80 to 100%. For the same compound, the EC50 came out at 272 nM in the test with Rab10 pThr73 [2] and 150 nM in the test with Rab10 pThr73 [4].

For the origin of these results see patent US20260001875A1, “AMINOPYRIMIDINYL DERIVATIVES FOR THE TREATMENT OF PARKINSON'S DISEASE” (UNIVERSITY OF DUNDEE, priority 2022, published 2026).
